In ChEMBL document CHEMBL5223129, “Antioxidant, Anti-inflammatory, and Immunomodulatory Roles of Nonvitamin Antioxidants in Anti-SARS-CoV-2 Therapy” (J Med Chem, 2022):

System: SARS-CoV-2
Assay: Antiviral activity against pseudovirus SARS-CoV-2 spike protein infected human HEK293T cells overexpressing ACE2 assessed as inhibition of viral infection incubated for 96 hrs by GFP fluorescence based method
Assay type: functional, organism-based
Settings: Severe acute respiratory syndrome coronavirus 2, HEK-293T

Question: How did the IC50 turn out when `CC1=C[C@H](O)CC(C)(C)[C@H]1/C=C/C(C)=C/C=C/C(C)=C/C=C/C=C(C)/C=C/C=C(\CO)C(=O)CC1=C(C)C[C@@H](O)CC1(C)C` was run?
Answer: The IC50 was 87.4 µM.
